According to ChEMBL document CHEMBL3792383, “C-cinnamoyl glycosides as a new class of anti-filarial agents” (Eur J Med Chem, 2016):
Converted amounts (≈) assume the structure as drawn. The source made the active and inactive calls. The calls are words filed in the database; no cut-off is given here.

Columns and labels:
Setaria cervi [1] = assay: Antifilarial activity against microfilaria of Setaria cervi assessed as inhibition of relative movability after 24 hrs by microscopy; assay type: functional, organism-based
Setaria cervi [2] = assay: Antifilarial activity against microfilaria of Setaria cervi assessed as inhibition of worm viability after 24 hrs by MTT assay; assay type: functional
Setaria cervi [3] = assay: Induction of apoptosis in microfilaria of Setaria cervi assessed as chromatin condensation after 24 hrs by propidium iodide staining-based inverted fluorescence microscopy; assay type: functional, organism-based
[4] = Selectivity index, ratio of CC50 for human normal kidney epithelial cells to IC50 for microfilaria of Setaria cervi; assay type: functional, Epithelial cell
Setaria cervi [5] = assay: Induction of apoptosis in microfilaria of Setaria cervi assessed as DNA fragmentation after 24 hrs by propidium iodide staining-based inverted fluorescence microscopy; assay type: functional, organism-based
Setaria cervi [6] = assay: Induction of apoptosis in microfilaria of Setaria cervi assessed as DNA fragmentation after 24 hrs by Hoechst 33342 staining-based fluorescence microscopy; assay type: functional, organism-based
Setaria cervi [7] = assay: Potency index, ratio of ivermectin LC50 to compound LC50 for microfilaria of Setaria cervi by MTT assay; assay type: functional
Setaria cervi [8] = assay: Induction of apoptosis in microfilaria of Setaria cervi assessed as chromatin condensation after 24 hrs by Hoechst 33342 staining-based fluorescence microscopy; assay type: functional, organism-based
[9] = Antifilarial activity against microfilaria of Wuchereria bancrofti assessed as inhibition of relative movability after 24 hrs by microscopy; assay type: functional
Setaria cervi [10] = assay: Induction of cuticular sheath damage in microfilaria of Setaria cervi after 24 hrs by scanning electron microscopy; assay type: functional, organism-based
Wuchereria bancrofti = assay: Antifilarial activity against microfilaria of Wuchereria bancrofti assessed as reduction in worm viability at 18 nM after 24 hrs by MTT assay; assay type: functional
[11] = Cytotoxicity against human normal kidney epithelial cells after 24 hrs by MTT assay; assay type: cell-based, Epithelial cell

Compound | IC50 (Setaria cervi [1]; Setaria cervi, 24 h) [nM] | MIC (Setaria cervi [1]; Setaria cervi, 24 h) [µM] | LC50 (Setaria cervi [2]) [nM] | further results
COc1ccc(/C=C/C(=O)C[C@@H]2O[C@H](COC(C)=O)[C@@H](OC(C)=O)[C@H](OC(C)=O)[C@H]2OC(C)=O)cc1OC | 81.4 | 0.0629 (≈ 33.7 ng/mL) | 274 | –
CC(=O)OC[C@H]1O[C@@H](CC(=O)/C=C/c2cc(Cl)cc(Cl)c2)[C@H](OC(C)=O)[C@@H](OC(C)=O)[C@@H]1OC(C)=O | 7.52 | 0.00532 (≈ 2.9 ng/mL) | 15.8 | Activity (Setaria cervi [3]): Active; Ratio CC50/IC50 [4]: 4.94; Activity (Setaria cervi [5]): Active; Activity (Setaria cervi [6]): Active; RatioLC50 (Setaria cervi [7]): 5.4; Activity (Setaria cervi [8]): Active; IC50 [9]: 9.33 nM; MIC [9]: 0.00476 µM (≈ 2.6 ng/mL); inhibition [9]: Dose-dependent effect; Activity (Setaria cervi [10]): inactive; Activity (Wuchereria bancrofti): 73.1%; CC50 at 24 h [11]: 32.9 nM
CC(=O)OC[C@H]1O[C@@H](CC(=O)/C=C/c2ccc(C(F)(F)F)cc2)[C@H](OC(C)=O)[C@@H](OC(C)=O)[C@@H]1OC(C)=O | 6.89 | 0.0034 (≈ 1.85 ng/mL) | 24.6 | Activity (Setaria cervi [3]): Active; Ratio CC50/IC50 [4]: 14.87; Activity (Setaria cervi [5]): Active; Activity (Setaria cervi [6]): Active; RatioLC50 (Setaria cervi [7]): 3.5; Activity (Setaria cervi [8]): Active; IC50 [9]: 8.96 nM; MIC [9]: 0.0044 µM (≈ 2.4 ng/mL); inhibition [9]: Dose-dependent effect; Activity (Setaria cervi [10]): Active; Activity (Wuchereria bancrofti): 40.6%; CC50 at 24 h [11]: 102 nM
IVERMECTIN [listing 1 of 2 here] | – | – | – | IC50 (Setaria cervi [1]): 19.5 nM
CC(=O)OC[C@H]1O[C@@H](CC(=O)/C=C/c2ccc(OC(C)=O)cc2)[C@H](OC(C)=O)[C@@H](OC(C)=O)[C@@H]1OC(C)=O | 119 | 0.0342 (≈ 18.3 ng/mL) | 336 | –
CC(=O)OC[C@H]1O[C@@H](CC(=O)/C=C/c2cccc([N+](=O)[O-])c2)[C@H](OC(C)=O)[C@@H](OC(C)=O)[C@@H]1OC(C)=O | 11.3 | 0.00594 (≈ 3.1 ng/mL) | 29 | Ratio CC50/IC50 [4]: 1.44; CC50 at 24 h [11]: 15.4 nM
CC(=O)OC[C@H]1O[C@@H](CC(=O)/C=C/c2cccc3ccccc23)[C@H](OC(C)=O)[C@@H](OC(C)=O)[C@@H]1OC(C)=O | 13.5 | 0.0117 (≈ 6.15 ng/mL) | 19.4 | –
CC(=O)OC[C@H]1O[C@@H](CC(=O)/C=C/c2ccc(Cl)cc2)[C@H](OC(C)=O)[C@@H](OC(C)=O)[C@@H]1OC(C)=O | 26.6 | 0.0167 (≈ 8.54 ng/mL) | 51.9 | –
CC(=O)OC[C@H]1O[C@@H](CC(=O)/C=C/c2ccc(OCc3ccccc3)cc2)[C@H](OC(C)=O)[C@@H](OC(C)=O)[C@@H]1OC(C)=O | 348 | 0.263 (≈ 153 ng/mL) | > 900 | –
COc1cc(/C=C/C(=O)C[C@@H]2O[C@H](COC(C)=O)[C@@H](OC(C)=O)[C@H](OC(C)=O)[C@H]2OC(C)=O)cc(OC)c1OC | 76.4 | 0.0602 (≈ 34.1 ng/mL) | 140 | –
CC(=O)OC[C@H]1O[C@@H](CC(=O)/C=C/c2ccco2)[C@H](OC(C)=O)[C@@H](OC(C)=O)[C@@H]1OC(C)=O | 46.6 | 0.0153 (≈ 7.12 ng/mL) | 163 | –
COc1cc(/C=C/C(=O)C[C@@H]2O[C@H](COC(C)=O)[C@@H](OC(C)=O)[C@H](OC(C)=O)[C@H]2OC(C)=O)ccc1O | 185 | 0.0722 (≈ 37.7 ng/mL) | 500 | –
CC(=O)OC[C@H]1O[C@@H](CC(=O)/C=C/c2ccc(Cl)c(Cl)c2)[C@H](OC(C)=O)[C@@H](OC(C)=O)[C@@H]1OC(C)=O | 6.97 | 0.00458 (≈ 2.5 ng/mL) | 13.2 | Activity (Setaria cervi [3]): Active; Ratio CC50/IC50 [4]: 3.97; Activity (Setaria cervi [5]): Active; Activity (Setaria cervi [6]): Active; RatioLC50 (Setaria cervi [7]): 6.5; Activity (Setaria cervi [8]): Active; IC50 [9]: 6.77 nM; MIC [9]: 0.00458 µM (≈ 2.5 ng/mL); inhibition [9]: Dose-dependent effect; Activity (Setaria cervi [10]): Active; Activity (Wuchereria bancrofti): 81.09%; CC50 at 24 h [11]: 25.8 nM
COc1cccc(/C=C/C(=O)C[C@@H]2O[C@H](COC(C)=O)[C@@H](OC(C)=O)[C@H](OC(C)=O)[C@H]2OC(C)=O)c1 | > 900 | > 0.9 | > 900 | –
CC(=O)OC[C@H]1O[C@@H](CC(=O)/C=C/c2ccc(N(C)C)cc2)[C@H](OC(C)=O)[C@@H](OC(C)=O)[C@@H]1OC(C)=O | 226 | 0.113 (≈ 58.9 ng/mL) | 886 | –
COc1ccccc1/C=C/C(=O)C[C@@H]1O[C@H](COC(C)=O)[C@@H](OC(C)=O)[C@H](OC(C)=O)[C@H]1OC(C)=O | 68.9 | 0.0351 (≈ 17.8 ng/mL) | 256 | –
CC(=O)OC[C@H]1O[C@@H](CC(=O)/C=C/c2ccc3ccccc3c2)[C@H](OC(C)=O)[C@@H](OC(C)=O)[C@@H]1OC(C)=O | > 900 | > 0.9 | > 900 | –
CCOc1ccc(/C=C/C(=O)C[C@@H]2O[C@H](COC(C)=O)[C@@H](OC(C)=O)[C@H](OC(C)=O)[C@H]2OC(C)=O)cc1 | 51.4 | 0.0279 (≈ 14.5 ng/mL) | 76.8 | –
CC(=O)OC[C@H]1O[C@@H](CC(=O)/C=C/c2ccc([N+](=O)[O-])s2)[C@H](OC(C)=O)[C@@H](OC(C)=O)[C@@H]1OC(C)=O | 21.3 | 0.0106 (≈ 5.6 ng/mL) | 47.5 | –
CC(=O)OC[C@H]1O[C@@H](CC(=O)/C=C/c2ccc(O)cc2)[C@H](OC(C)=O)[C@@H](OC(C)=O)[C@@H]1OC(C)=O | > 900 | > 0.9 | > 900 | –
IVERMECTIN [listing 2 of 2 here] | – | – | 53.6 | MIC (Setaria cervi [1]): 0.00743 µM; Activity (Wuchereria bancrofti): 17.6%
CC(=O)OC[C@H]1O[C@@H](CC(=O)/C=C/c2cccs2)[C@H](OC(C)=O)[C@@H](OC(C)=O)[C@@H]1OC(C)=O | 46.9 | 0.0245 (≈ 11.8 ng/mL) | 257 | –
CC(=O)OC[C@H]1O[C@@H](CC(=O)/C=C/c2cc(Cl)cc(Cl)c2O)[C@H](OC(C)=O)[C@@H](OC(C)=O)[C@@H]1OC(C)=O | 17.7 | 0.00919 (≈ 5.16 ng/mL) | 44.4 | –
CC(=O)OC[C@H]1O[C@@H](CC(=O)/C=C/c2ccccc2)[C@H](OC(C)=O)[C@@H](OC(C)=O)[C@@H]1OC(C)=O | 38.8 | 0.0206 (≈ 9.8 ng/mL) | 108 | –
CC(=O)OC[C@H]1O[C@@H](CC(=O)/C=C/c2ccc(C)cc2)[C@H](OC(C)=O)[C@@H](OC(C)=O)[C@@H]1OC(C)=O | 13.6 | 0.00581 (≈ 2.85 ng/mL) | 42.2 | Ratio CC50/IC50 [4]: 0.24; CC50 at 24 h [11]: 3.18 nM
CC(=O)OC[C@H]1O[C@@H](CC(=O)/C=C/c2cccnc2)[C@H](OC(C)=O)[C@@H](OC(C)=O)[C@@H]1OC(C)=O | 7.64 | 0.00377 (≈ 1.8 ng/mL) | 26.7 | Ratio CC50/IC50 [4]: 0.56; CC50 at 24 h [11]: 4.17 nM
COc1ccc(/C=C/C(=O)C[C@@H]2O[C@H](COC(C)=O)[C@@H](OC(C)=O)[C@H](OC(C)=O)[C@H]2OC(C)=O)cc1OCc1ccccc1 | 250 | 0.123 (≈ 75.2 ng/mL) | > 900 | –
CC(=O)OC[C@H]1O[C@@H](CC(=O)/C=C/c2ccc([N+](=O)[O-])cc2)[C@H](OC(C)=O)[C@@H](OC(C)=O)[C@@H]1OC(C)=O | 23.9 | 0.0111 (≈ 5.8 ng/mL) | 71.2 | –
COc1ccc(/C=C/C(=O)C[C@@H]2O[C@H](COC(C)=O)[C@@H](OC(C)=O)[C@H](OC(C)=O)[C@H]2OC(C)=O)cc1 | 41.6 | 0.0207 (≈ 10.5 ng/mL) | 142 | –
